40 compounds from ChEMBL document CHEMBL5532682, “Recent advances of tryptanthrin and its derivatives as potential anticancer agents” (RSC Med Chem, 2024) can be followed below.

Series [1] is described as follows: Antiproliferative activity against mouse MC3T3-E1 cells. It is filed as toxicity, cell-based.
Series [2] deals with A549. Kind of series: Antiproliferative activity against human A549 cells. Format: functional, cell-based.
Series [3] relates to A549. The series is described as follows: Antiproliferative activity against human A549 cells measured after 48 hrs by MTT assay. Format: functional, cell-based. The settings on record: A549, 48 h. In general terms: Tetrazolium dyes change colour on reduction, which living cells bring about.
The test system of series [4] is HCT-116. Kind of series: Antiproliferative activity against human HCT-116 cells measured after 48 hrs by MTT assay. It is filed as functional, cell-based. The conditions noted are these: HCT-116, 48 h.
Series [5] relates to MDA-MB-231. The series is described as follows: Antiproliferative activity against human MDA-MB-231 cells measured after 48 hrs by MTT assay. Format: functional, cell-based. The settings on record: MDA-MB-231, 48 h.
The subject of series [6] is MCF7. Kind of series: Antiproliferative activity against human MCF7 cells assessed as inhibition of cell growth. Format: functional, cell-based.
The test system of series [7] is A549. The series is described as follows: Antiproliferative activity against human A549 cells assessed as inhibition of cell growth. It is filed as functional, cell-based.
Series [8] has as its system HeLa. The series is described as follows: Antiproliferative activity against human HeLa cells assessed as inhibition of cell growth. Format: functional, cell-based.

The IC50 is the concentration that inhibits the measured activity by half. As for `O=C1c2ccccc2-n2c1nc1cc(Cl)ccc1c2=O`, the half-inhibitory concentration (IC50) in series [1] and in series [2] was > 100 µM each time.
On to `CCN(CC)c1cccc2c1C(=O)c1nc3ccccc3c(=O)n1-2`, for which the figures for the half-inhibitory concentration (IC50) in series [3], in series [4] and in series [5] were > 100 µM, 1.62 µM and 48.3 µM, respectively.
For `CN1CCN(c2cccc3c2C(=O)c2nc4ccccc4c(=O)n2-3)CC1`, the IC50 in series [3] was > 100 µM; in series [4] it was 45.6 µM; in series [5], > 100 µM.
In the case of `O=C1C2C=CC=CC2=NC2/C(=N\Nc3nc(-c4ccc(O)cc4)cs3)c3ccccc3N12` (stereo not drawn), the IC50 in series [6] stood at 31.6 µM; in series [7], 28.8 µM; in series [8], 7.22 µM.
The matching figures for `COc1ccc(-c2cs/c(=N/N=C3/c4ccccc4-n4c3nc3ccccc3c4=O)n2-c2ccccc2)cc1`: 52.3 µM, 63 µM and 40.2 µM.
Regarding `O=C1c2c(ccc(Cl)c2N2CCN(c3ccccn3)CC2)-n2c1nc1ccccc1c2=O`, the IC50 in series [3], in series [4] and in series [5] was > 100 µM in each case.
Take `CN(C)c1c(F)ccc2c1C(=O)c1nc3ccccc3c(=O)n1-2`: the figures for the IC50 in series [3], in series [4] and in series [5] were > 100 µM, > 100 µM and 89.7 µM, respectively.
With `O=C1c2ccccc2-n2c1nc1ccc(Cl)c(Cl)c1c2=O`, the IC50 in series [1] and in series [2] was > 100 µM throughout.
As to `CN(C)c1c(Cl)ccc2c1C(=O)c1nc3ccccc3c(=O)n1-2`, the results for the IC50 in series [3], in series [4] and in series [5] were 18.6 µM, 25.7 µM and 14.7 µM, respectively.
For `O=C1c2c(ccc(Cl)c2N2CCN(CCO)CC2)-n2c1nc1ccccc1c2=O` the same measures were 22.8 µM, > 100 µM and 32.8 µM.
Turning to `COc1ccc(-c2csc(N/N=C3/c4ccccc4N4C(=O)C5C=CC=CC5=NC34)n2)cc1` (stereo not drawn), the IC50 is 45.9 µM in series [6], 52 µM in series [7] and 65.5 µM in series [8].
Take `O=C1c2c(ccc(F)c2Cl)-n2c1nc1cc(Cl)ccc1c2=O`: the results for the IC50 in series [1] and in series [2] were 82 µM and 1.03 µM, respectively.
Regarding `O=C1c2c(N3CCN(CCO)CC3)cccc2-n2c1nc1ccccc1c2=O`, the 50% inhibitory concentration (IC50) in series [3] was > 100 µM; in series [4] it was > 100 µM; in series [5], 34.2 µM.
Consider `CN1CCN(c2c(Cl)ccc3c2C(=O)c2nc4ccccc4c(=O)n2-3)CC1`, for which the IC50 in series [3], in series [4] and in series [5] was > 100 µM throughout.
As to `N#Cc1ccc(-c2cs/c(=N/N=C3/c4ccccc4-n4c3nc3ccccc3c4=O)n2-c2ccccc2)cc1`, the IC50 in series [6] is 44.4 µM; in series [7], 28.8 µM; in series [8], 43.8 µM.
The matching figures for `O=c1c2ccccc2nc2n1-c1ccccc1/C2=N/N=c1/scc(-c2ccc(Cl)cc2)n1-c1ccccc1`: 46.1 µM, 65.5 µM and 75.2 µM.
Regarding `CCN(CC)c1c(F)ccc2c1C(=O)c1nc3ccccc3c(=O)n1-2`, the results for the IC50 in series [3], in series [4] and in series [5] were 1.2 µM, 2.01 µM and 0.8 µM, respectively.
The matching figures for `Cc1ccc2c(c1N1CCN(c3ccccn3)CC1)C(=O)c1nc3ccccc3c(=O)n1-2`: > 100 µM, > 100 µM and > 100 µM.
For `O=c1c2ccccc2nc2n1-c1ccccc1/C2=N/N=c1/scc(-c2ccc(Br)cc2)n1-c1ccccc1`, the figures for the IC50 in series [6], in series [7] and in series [8] were 31.6 µM, 64.9 µM and 55.5 µM, respectively.
Turning to `Cc1ccc2c(c1N1CCNCC1)C(=O)c1nc3ccccc3c(=O)n1-2`, the IC50 in series [3] was > 100 µM; in series [4] it was 67.2 µM; in series [5], 69.8 µM.
The matching figures for `Cc1ccc2c(c1N1CCOCC1)C(=O)c1nc3ccccc3c(=O)n1-2`: > 100 µM, > 100 µM and 58.7 µM.
The matching figures for `Cc1ccc2c(c1N1CCN(CCO)CC1)C(=O)c1nc3ccccc3c(=O)n1-2`: > 100 µM, > 100 µM and > 100 µM.
As for `O=C1c2cc(F)ccc2-n2c1nc1cc(Cl)ccc1c2=O`, the IC50 in series [1] and in series [2] was > 100 µM in each case.
For `O=c1c2ccccc2nc2n1-c1ccccc1/C2=N/N=c1/scc(-c2ccc(O)cc2)n1-c1ccccc1`, the IC50 was determined as 58.5 µM in series [6], 38.3 µM in series [7] and 55.1 µM in series [8].
The matching figures for `O=C1C2C=CC=CC2=NC2/C(=N\Nc3nc(-c4ccccc4)cs3)c3ccccc3N12` (stereo not drawn): 40.5 µM, 52 µM and 46 µM.
Consider `Cc1ccc2c(c1N1CCCCC1)C(=O)c1nc3ccccc3c(=O)n1-2`, for which the IC50 in series [3], in series [4] and in series [5] was > 100 µM throughout.
For `O=C1C2C=CC=CC2=NC2/C(=N\Nc3nc(-c4ccc([N+](=O)[O-])cc4)cs3)c3ccccc3N12` (stereo not drawn), the IC50 in series [6] was 59.1 µM; in series [7], 49.1 µM; in series [8], 67 µM.
For `O=c1c2ccccc2nc2n1-c1ccccc1/C2=N/N=c1/scc(-c2ccccc2)n1-c1ccccc1` the same measures were 50.2 µM, 51.6 µM and 56.6 µM.
As to `O=C1c2cc(Cl)ccc2-n2c1nc1cc(Cl)ccc1c2=O`, the IC50 in series [1] and in series [2] was > 100 µM each time.
Turning to `O=C1c2c(ccc(Cl)c2N2CCOCC2)-n2c1nc1ccccc1c2=O`, the IC50 in series [3] was > 100 µM; in series [4], 10.7 µM; in series [5] it was > 100 µM.
On to `O=c1c2ccccc2nc2n1-c1ccccc1/C2=N/N=c1/scc(-c2ccc(F)cc2)n1-c1ccccc1`, for which the IC50 in series [6] was found to be 60.1 µM; in series [7], 44.4 µM; in series [8], 52 µM.
Turning to `CN1CCN(c2c(F)ccc3c2C(=O)c2nc4ccccc4c(=O)n2-3)CC1`, the IC50 in series [3], in series [4] and in series [5] was > 100 µM each time.
Take `O=C1c2c(ccc(Cl)c2N2CCCCC2)-n2c1nc1ccccc1c2=O`: the IC50 in series [3], in series [4] and in series [5] was > 100 µM each time.
For the compound `Cc1ccc2c(c1N(C)C)C(=O)c1nc3ccccc3c(=O)n1-2`, the IC50 in series [3] was 98 µM; in series [4], > 100 µM; in series [5] it was 87.3 µM.
Regarding `O=C1c2c(ccc(F)c2N2CCNCC2)-n2c1nc1ccccc1c2=O`, the IC50 was > 100 µM in series [3], > 100 µM in series [4] and 65.8 µM in series [5].
For the compound `Cc1ccc2c(c1N1CCN(C)CC1)C(=O)c1nc3ccccc3c(=O)n1-2`, the IC50 in series [3] was 52.6 µM; in series [4] it was > 100 µM; in series [5] it was > 100 µM.
Take `CCN(CC)c1c(Cl)ccc2c1C(=O)c1nc3ccccc3c(=O)n1-2`: the IC50 in series [3] came to 1.48 µM; in series [4], 1.29 µM; in series [5], 1.78 µM.
`O=C1c2c(ccc(Cl)c2N2CCNCC2)-n2c1nc1ccccc1c2=O`: the results for the IC50 in series [3], in series [4] and in series [5] were 34.5 µM, > 100 µM and 31.6 µM, respectively.
Turning to `O=c1c2ccccc2nc2n1-c1ccccc1/C2=N/N=c1/scc(-c2ccc([N+](=O)[O-])cc2)n1-c1ccccc1`, the IC50 amounted to 43.1 µM in series [6], 52.8 µM in series [7] and 67 µM in series [8].
As for `CC[C@@]1(O)C(=O)OCc2c1cc1n(c2=O)Cc2cc3ccccc3nc2-1` [CAMPTOTHECIN], in series [2], inhibition was half-maximal at 0.39 µM (IC50).
